In series [1] the target is T1, Heat shock protein HSP90 (Homo sapiens) (UniProt P07900+P08238). Put plainly: Activity at Hsp90 in HeLa cells assessed as reduction in telomerase activity by TRAP assay relative to control. The class given is cell-based. On the set-up: scale not given: the % may be the effect or the level left.
For series [2], the target named is T1, Heat shock protein HSP90 (Homo sapiens). Put plainly: Activity at Hsp90 in DU145 cells assessed as reduction in telomerase activity by TRAP assay relative to control. The class given is cell-based. Details: scale not given: the % may be the effect or the level left. Particulars: DU-145.
For series [3], the system named is DU-145. Description: Cytotoxicity against DU145 cells after 72 hrs. The class given is cell-based. Particulars: Homo sapiens, DU-145, 72 h.
Series [4] deals with HeLa. Put plainly: Cytotoxicity against HeLa cells after 72 hrs. Particulars: Homo sapiens. It is filed as cell-based.
Series [5] in a line: Cytotoxicity against JR8 cells after 72 hrs. It is filed as cell-based. The settings on record: Homo sapiens, JR8, 72 h.
Series [6] can be described thus: Cytotoxicity against human WI38 cells after 72 hrs. The class given is cell-based. The settings on record: wi-38, 72 h.
Series [7] concerns DU-145. Description: Induction of apoptosis in DU145 cells after 72 hrs at 62.5 uM. The class given is functional, Homo sapiens.
Series [8] has as its system HeLa. Put plainly: Induction of apoptosis in HeLa cells after 72 hrs at 125 uM. The class given is functional, Homo sapiens.
Series [9] can be described thus: Induction of apoptosis in JR8 cells after 72 hrs at 125 uM. The class given is functional, Homo sapiens.
Series [10] concerns DU-145. Put plainly: Apoptotic activity against DU145 cells after 72 hrs. The class given is functional, Homo sapiens.
In series [11] the test system is HeLa. Put plainly: Apoptotic activity against HeLa cells after 72 hrs. It is filed as functional, Homo sapiens.
A short description of series [12]: Apoptotic activity against JR8 cells after 72 hrs. It is filed as functional, Homo sapiens.
Series [13] deals with T2, Caspase-3 (Homo sapiens) (UniProt P42574).
T2 sequence (whole entry): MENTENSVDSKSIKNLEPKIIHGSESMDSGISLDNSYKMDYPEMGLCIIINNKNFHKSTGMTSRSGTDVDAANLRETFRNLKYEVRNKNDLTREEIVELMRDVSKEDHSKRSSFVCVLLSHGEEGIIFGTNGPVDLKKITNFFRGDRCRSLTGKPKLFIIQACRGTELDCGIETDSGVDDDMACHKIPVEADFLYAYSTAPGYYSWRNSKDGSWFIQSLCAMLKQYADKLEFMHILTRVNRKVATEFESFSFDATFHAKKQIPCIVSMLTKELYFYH
Put plainly: Activation of caspase 3 in DU145 cells assessed as hydrolysis of DEVD-pNA […] substrate. The class given is cell-based. Particulars: DU-145.

In series [14] the target is T2, Caspase-3 (Homo sapiens). Put plainly: Activation of caspase 3 in HeLa cells assessed as hydrolysis of DEVD-pNA […] substrate. It is filed as cell-based.
Series [15] deals with T3, Caspase-9 (Homo sapiens) (UniProt P55211).
T3 sequence (whole entry): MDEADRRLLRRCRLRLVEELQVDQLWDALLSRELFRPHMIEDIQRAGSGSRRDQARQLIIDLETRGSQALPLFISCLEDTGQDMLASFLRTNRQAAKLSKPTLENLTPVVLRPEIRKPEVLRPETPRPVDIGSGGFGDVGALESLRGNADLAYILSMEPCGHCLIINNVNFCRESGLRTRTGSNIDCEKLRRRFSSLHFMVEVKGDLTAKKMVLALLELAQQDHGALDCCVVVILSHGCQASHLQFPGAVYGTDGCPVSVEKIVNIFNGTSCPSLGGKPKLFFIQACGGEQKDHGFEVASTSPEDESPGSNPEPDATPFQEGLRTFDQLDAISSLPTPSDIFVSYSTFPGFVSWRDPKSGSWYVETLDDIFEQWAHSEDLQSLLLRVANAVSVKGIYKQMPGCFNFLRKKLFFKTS
Put plainly: Activation of caspase 9 in DU145 cells assessed as hydrolysis of LEHD-pNA […] substrate. It is filed as cell-based. Particulars: DU-145.

Series [16] deals with T3, Caspase-9 (Homo sapiens). Put plainly: Activation of caspase 9 in HeLa cells assessed as hydrolysis of LEHD-pNA […] substrate. It is filed as cell-based.

The values that follow come from ChEMBL document CHEMBL1138858, “Small-molecule targeting of heat shock protein 90 chaperone function: rational identification of a new anticancer lead” (J Med Chem, 2006).

Calls of active or inactive are those of the source. The calls are words filed in the database; no cut-off is given here.

Consider `NC(=O)c1ncn([C@@H]2O[C@H](COP(=O)(O)O)[C@@H](O)[C@H]2O)c1N`, for which the Activity in series [1] was 70%; in [2], 70%; in series [6], “Not Active”; with DU-145 [7], 34%; with HeLa [8], 27%; in [9] it was 20%. The values for the Activity (with DU-145 [10]; in the series on HeLa [11]; in series [12]) were 28%, 23% and 13%, respectively. Further, the IC50 in the series with DU-145 [3] is 59 µM; in the series on HeLa [4] it was 126 µM; in [5], 105 µM. Moreover, the outcome at Caspase-3 (Homo sapiens) [13], on Caspase-3 (Homo sapiens) [14], on Caspase-9 (Homo sapiens) [15] and at Caspase-9 (Homo sapiens) [16] was Active.
Turning to `C=CCNC1=C2C[C@@H](C)C[C@H](OC)[C@H](O)[C@@H](C)/C=C(\C)[C@H](OC(N)=O)[C@@H](OC)/C=C\C=C(/C)C(=O)NC(=CC1=O)C2=O` [TANESPIMYCIN], the values for the IC50 (in the series with DU-145 [3]; in the series with HeLa [4]; in series [5]) were 68.3 µM, 108 µM and 53.3 µM, respectively. In addition, the results for the Activity (with DU-145 [10]; in the series with HeLa [11]; in series [12]) were 15.9%, 10.8% and 12%, respectively.
